Reference: US20050163831A1, “Patch for transdermal administration” (Hisamitsu Pharmaceutical Co., Inc., priority 2002, published 2005)

Assays:
[1] = permeability test through hairless mouse skin (flow-through cell); format: in vitro ADME; conditions: for maximum value of the permeability rate of the drug per unit area of the skin, base agent Acetone: 1% (w/v) solution in acetone as donor; for maximum value of the permeability rate of the drug per unit area of the skin, base agent Acetone / maximum value of the permeability rate of the drug per unit area of the skin, base agent IPM / maximum value of the permeability rate of the drug per unit area of the skin, base agent Liquid paraffin / maximum value of the permeability rate of the drug per unit area of the skin, base agent PG: extirpated hairless mouse dorsal skin, 37° C., up to 24 hours; for maximum value of the permeability rate of the drug per unit area of the skin, base agent IPM: saturated solution in isopropyl myristate (IPM) as donor; for maximum value of the permeability rate of the drug per unit area of the skin, base agent Liquid paraffin: saturated solution in liquid paraffin as donor; for maximum value of the permeability rate of the drug per unit area of the skin, base agent PG: saturated solution in propylene glycol (PG) as donor
Procedure: Preliminary Test 1 (permeability test through hairless mouse skin)
A permeability test through hairless mouse skin was conducted for the following 1-12 test solutions:
First, dorsal skin of a hairless mouse was extirpated, which was set to a flow-through cell (effective area: 1 cm^2) with facing the dermis side to the receptor side, where a water of 37° C. was circulating the periphery of the cell. Next, 1 mL of Test solution 1 was charged in a cell on the stratum corneum side of the skin as a donor solution. While using a mixed solution of 40% (v/v) polyethylene glycol 400/physiological saline as a receptor layer, sampling of the receptor solution was carried out at a speed of 5 mL/hour every 2 hours up to 24 hours. For receptor solutions obtained at respective times, the flow volume was measured precisely and the drug concentration was measured by using high-performance liquid chromatography. From the obtained measurement values of the flow volume and drug concentration, the permeability rate per 1 hour was calculated to obtain the maximum value of the permeability rate of the drug per unit area of the skin.

[2] = tested on: carrageenin-induced paw edema; assay: carrageenin-induced paw edema test in rats; format: in vivo; conditions: 100 μL of 3% (w/v) solution in acetone applied to footpad for 3 hours; measured 3 hours after carrageenin; p<0.01 vs control
Source text: Preliminary Test 3 (carrageenin-induced paw edema test in rats)
First, SD male rats with weight of around 110 g were used to measure a paw volume (mL) of a right hind footpad by using a water-replacement type paw volume determining device (Model TK-101 CMP, MUROMACHI KIKAI) according to the method of Fujihira et al. [Fujihira Eichi, Screening no Hoho to Mondaiten—Adjuvant Kansetsuen ni yoru Koenshoyaku no Kenteiho (Methods and Problems of Screening—Assay of Antiinflammatory Agent by Adjuvant Arthritis) (1971) Oyo Yakuri (Pharmacometrics) 5,169-183], and they were grouped such that there was no difference between the average paw volume values of both groups. Next, each 100 μL of a 3% (w/v) solution of valdecoxib in acetone was applied to the right hind footpad. On the other hand, acetone was applied to the control group. After sufficient drying after the application, the rats were housed in separate cages without covering treatment. […] After additional 3 hours, the paw volume at the right hind footpad was measured again to calculate an edema ratio (%) according to the following edema ratio calculation method (calculation formula): Edema ratio (%)=[(paw volume after 3 hours from inflammation (mL)−paw volume at ordinary time (mL))/paw volume at ordinary time (mL))]×100 to evaluate the antiinflammatory effect of valdecoxib. […]

[3] = tested on: yeast-induced paw inflammation and nociception; assay: yeast-induced paw inflammation and nociception test in rats; format: in vivo; conditions: 100 μL of 3% (w/v) solution in acetone applied to footpad for 3 hours; measured 3 hours after yeast injection; p<0.01 vs control
Source text: Preliminary Test 2 (yeast-induced paw inflammation and nociception test in rats) First, SD male rats with weight of around 130 g were used to measure a pain threshold value (g) by using analgesimeter (Analgesy 7200, Ugo Basile) according to the method of Randall & […]. and […] method for measurement of analgesic activity on inflamed tissue. (1957) Arch. Int. Pharmacodyn. 4, 409-419], while defining removal reaction against pressure irritation to a right hind footpad as the index, and they were grouped such that there was no difference between the average pain threshold values of both groups. […] On the other hand, acetone was applied to the control group. After sufficient drying after the application, the rats were housed in separate cages without covering treatment. At this time, for the purpose of preventing oral drug intake, a collar was attached to all the rats including the control group. After 3 hours from the application described above, valdecoxib remaining at the applied site was wiped off with absorbent cotton having been dipped in slightly warm water and, immediately after the wipe, each 100 μL of a yeast suspension (20% Baker's Yeast) was injected subcutaneously to all the rats including the control group to induce inflammation. […] The obtained results are illustrated in FIG. 1.

maximum value of the permeability rate of the drug per unit area of the skin, base agent Acetone [1] [μg/cm^2/hr]	maximum value of the permeability rate of the drug per unit area of the skin, base agent IPM [1] [μg/cm^2/hr]	maximum value of the permeability rate of the drug per unit area of the skin, base agent Liquid paraffin [1] [μg/cm^2/hr]	maximum value of the permeability rate of the drug per unit area of the skin, base agent PG [1] [μg/cm^2/hr]	skin permeability (in words) ([1]; compared with celecoxib and rofecoxib, Table 1)	Structure (SMILES)	antiinflammatory action (edema ratio, FIG. 2) [2]	analgesic action (pain threshold value at right hind footpad, FIG. 1) [3]
0.09	0.00	0.00	0.00		CS(=O)(=O)c1ccc(C2=C(c3ccccc3)C(=O)OC2)cc1 [rofecoxib, 3-phenyl-4-(4-methylsulfonylphenyl)-2(5H)-furanone]		
0.59	2.97	0.41	4.10	very high skin permeability	Cc1onc(-c2ccccc2)c1-c1ccc(S(N)(=O)=O)cc1 [valdecoxib, 4-(5-methyl-3-phenylisoxazole-4-yl)benzenesulfonamide]	significant antiinflammatory action	significant analgesic action
0.3	2.04	0.00	0.90		Cc1ccc(-c2cc(C(F)(F)F)nn2-c2ccc(S(N)(=O)=O)cc2)cc1 [celecoxib, 4-[5-(4-methylphenyl)-3-(trifluoromethyl)pyrazole-1-yl]benzolsulfonamide]		
